Assay results reported in BindingDB's records for doi:10.1128/AAC.01293-09 (Glaxosmithkline, 2010).

Columns and labels:
[1] = Inhibition of HIV1 HXB2 gp120-mediated viral infusion into HEK293 cells after 24 hrs by luciferase reporter gene assay in presence of 45 mg/ml human serum albumin
[2] = Inhibition of HIV1 HXB2 gp120-mediated viral infusion into HEK293 cells after 24 hrs by luciferase reporter gene assay
[3] = Inhibition of CXCR4-mediated chemotaxis in SDF1-stimulated human U937 cells treated 15 mins before SDF1 challenge measured after 2 hrs by luminescence assay

Structure (SMILES): CN1CCN(c2cccc3nc(CN(C)[C@H]4CCCc5cccnc54)c(CO)n23)CC1 [([5-(4-Methyl-1-piperazinyl)-2-({methyl[(8S)-5,6,7,8-tetrahydro-8-quinolinyl]amino}methyl)imidazo[1,2-a]pyridin-3-yl]methanol)]
- IC50 [1]: 1.71 nM
- IC50 [2]: 0.56 nM
- IC50 [3]: 0.34 nM
